Reference: ChEMBL document CHEMBL3751745, “Aryl-imidazothiadiazole analogues as microtubule disrupting agents” (Medchemcomm, 2015)
Calls of active or inactive are those of the source. The calls are words filed in the database; no cut-off is given here.

Tests used:
[1] = Cytotoxicity against human DU145 cells assessed as cell viability after 48 hrs by SRB assay; type: functional, cell-based; conditions: DU-145, 48 h
[2] = test system: MCF7; test: Cytotoxicity against human MCF7 cells assessed as cell viability after 48 hrs by SRB assay; type: functional, cell-based; conditions: MCF7, 48 h
[3] = test system: HeLa; test: Cytotoxicity against human HeLa cells assessed as cell viability after 48 hrs by SRB assay; type: functional, cell-based
[4] = Cytotoxicity against human MIAPaCa2 cells assessed as cell viability after 48 hrs by SRB assay; type: functional, cell-based; conditions: MIA PaCa-2, 48 h
[5] = test system: HeLa; test: Disruption of microtubule organization in human HeLa cells at 5 uM after 24 hrs by DAPI-FITC staining based confocal microscopic analysis; type: functional, cell-based
[6] = biological target: Tubulin (Sus scrofa, UniProt P02554+P02550); test: Inhibition of porcine brain tubulin polymerization by fluorescence based assay
[7] = test system: HeLa; test: Induction of apoptosis in human HeLa cells assessed as activation of cyclin B1 mRNA levels at 5 uM after 24 hrs by semi-quantitative RT-PCR; type: functional, cell-based
[8] = test system: HeLa; test: Induction of cell cycle arrest in human HeLa cells assessed as cell arrest at accumulation at G2/M phase at 5 uM after 24 hrs by flow cytometric analysis (reference value: 25.49%); type: functional
[9] = test system: HeLa; test: Induction of apoptosis in human HeLa cells assessed as induction of cyclin B1 levels at 5 uM after 24 hrs by Western blot analysis; type: functional, cell-based
[10] = biological target: Tubulin (Homo sapiens) (UniProt P68371+Q9H4B7+P0DPH7+P68366+Q13509+Q71U36+P04350+Q3ZCM7+P07437+P68363+Q9BQE3+Q6PEY2+Q13885+Q9BVA1+Q9BUF5); test: Inhibition of colchicine binding to tubulin (unknown origin) assessed as decrease in tubulin-colchicine complex at 0 to 15 uM incubated for 1 hr by fluorescence based colchicine competitive binding assay; type: protein-complex assay
[11] = test system: HeLa; test: Induction of apoptosis in human HeLa cells assessed as activation of caspase-3 activity at 4 uM after 24 hrs by ELISA; type: functional
[12] = test system: HeLa; test: Induction of apoptosis in human HeLa cells assessed as activation of caspase-3 activity at 2 uM after 24 hrs by ELISA; type: functional
[13] = biological target: Tubulin (Sus scrofa) (UniProt P02554+P02550); test: Inhibition of porcine brain tubulin polymerization at 5 uM by fluorescence based assay
Tubulin (Sus scrofa), sequence (P02550 whole entry, looked up): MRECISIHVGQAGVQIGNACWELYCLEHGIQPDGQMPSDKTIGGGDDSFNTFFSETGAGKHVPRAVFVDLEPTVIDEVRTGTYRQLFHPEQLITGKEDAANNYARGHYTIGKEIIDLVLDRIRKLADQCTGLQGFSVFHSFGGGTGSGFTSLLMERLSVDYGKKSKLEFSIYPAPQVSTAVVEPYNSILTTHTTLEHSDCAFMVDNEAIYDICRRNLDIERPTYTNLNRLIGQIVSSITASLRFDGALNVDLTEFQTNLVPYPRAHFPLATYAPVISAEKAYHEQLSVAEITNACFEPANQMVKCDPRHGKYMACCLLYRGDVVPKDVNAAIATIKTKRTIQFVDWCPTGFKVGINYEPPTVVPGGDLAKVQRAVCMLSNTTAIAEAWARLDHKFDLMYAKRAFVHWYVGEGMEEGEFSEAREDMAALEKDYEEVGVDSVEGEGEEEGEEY
Tubulin (Sus scrofa), sequence (P02554 whole entry, looked up): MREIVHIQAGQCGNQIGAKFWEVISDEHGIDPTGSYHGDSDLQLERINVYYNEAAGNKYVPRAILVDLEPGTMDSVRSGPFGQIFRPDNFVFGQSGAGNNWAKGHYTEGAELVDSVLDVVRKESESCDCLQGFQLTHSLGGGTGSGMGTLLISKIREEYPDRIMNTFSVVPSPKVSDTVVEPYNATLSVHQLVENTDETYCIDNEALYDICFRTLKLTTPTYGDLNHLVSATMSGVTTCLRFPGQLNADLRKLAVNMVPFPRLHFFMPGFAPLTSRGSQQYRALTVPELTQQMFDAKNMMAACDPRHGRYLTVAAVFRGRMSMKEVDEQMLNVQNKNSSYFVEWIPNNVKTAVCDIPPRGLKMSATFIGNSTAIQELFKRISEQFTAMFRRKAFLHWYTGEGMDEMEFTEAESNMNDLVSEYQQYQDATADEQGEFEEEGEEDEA

[14] = test system: HeLa; test: Induction of cell cycle arrest in human HeLa cells assessed as cell arrest at accumulation at G2/M phase at 2 uM after 24 hrs by flow cytometric analysis (reference value: 25.49%); type: functional

Structure (SMILES) | IC50 [1] [µM] | IC50 [2] [µM] | IC50 [3] [µM] | IC50 [4] [µM] | further results
COc1cc(-c2nc3sc(C4CC4)nn3c2-c2ccccc2)cc(OC)c1OC | 25.6 | 42.3 | 35.4 | 31.5 | 
COc1cc(-c2nc3sc(C4CC4)nn3c2-c2ccc(C)cc2)cc(OC)c1OC | 18.5 | 26.1 | 20.5 | 29.8 | 
CCc1nn2c(-c3ccc(F)c(Cl)c3)c(-c3cc(OC)c(OC)c(OC)c3)nc2s1 | 11.4 | 14.5 | 13.9 | 17.3 | 
CCc1nn2c(-c3ccc4ccccc4c3)c(-c3cc(OC)c(OC)c(OC)c3)nc2s1 | 4.49 | 2.4 | 1.6 | 1.2 | Activity [5]: Active; IC50 [6]: 1.7 µM; Activity [7]: Active; Activity [8]: 78.3%; Activity [9]: Active; inhibition [10]: Dose-dependent effect; fold change (FC) [11]: 2.5; fold change (FC) [12]: 2.5; inhibition [13]: 75.1%; Activity [14]: 64.84%
COc1cc(-c2nc3sc(C4CC4)nn3c2-c2ccc3ccccc3c2)cc(OC)c1OC | 45.2 | 15.3 | 19.4 | 21.6 | 
CCc1nn2c(-c3ccc(N(C)C)cc3)c(-c3cc(OC)c(OC)c(OC)c3)nc2s1 | 2.75 | 1.9 | 2.2 | 2.5 | Activity [5]: Active; IC50 [6]: 3.1 µM; Activity [7]: Active; Activity [8]: 67.53%; Activity [9]: Active; fold change (FC) [11]: 2.5; fold change (FC) [12]: 2.5; inhibition [13]: 66.8%; Activity [14]: 55.3%
CCc1nn2c(-c3ccc(OC(F)(F)F)cc3)c(-c3cc(OC)c(OC)c(OC)c3)nc2s1 | 23.5 | 14.8 | 13.4 | 16.4 | 
COc1cc(-c2nc3sc(C4CC4)nn3c2-c2ccc(Cl)cc2)cc(OC)c1OC | 11.6 | 22.9 | 19.2 | 17.4 | 
CCc1nn2c(-c3cc(F)cc(F)c3)c(-c3cc(OC)c(OC)c(OC)c3)nc2s1 | 21.6 | 36.4 | 26.4 | 30.6 | 
COc1cc(-c2nc3sc(C4CC4)nn3c2-c2ccc(F)c(Cl)c2)cc(OC)c1OC | 13.7 | 18.7 | 15.5 | 20.7 | 
CCc1nn2c(-c3cc(OC)c(OC)c(OC)c3)c(-c3cc(OC)c(OC)c(OC)c3)nc2s1 | 13.4 | 20.4 | 17.5 | 19.6 | 
CCc1nn2c(-c3ccc(C)cc3)c(-c3cc(OC)c(OC)c(OC)c3)nc2s1 | 21.7 | 16.7 | 14.8 | 20.4 | 
COc1cc(F)ccc1-c1c(-c2cc(OC)c(OC)c(OC)c2)nc2sc(C3CC3)nn12 | 22.4 | 34.8 | 25.9 | 40.9 | 
CCc1nn2c(-c3ccc(OC)cc3)c(-c3cc(OC)c(OC)c(OC)c3)nc2s1 | 25.4 | 25.4 | 21.6 | 30.5 | 
COc1cc(-c2nc3sc(C4CC4)nn3c2-c2ccc3c(c2)OCO3)cc(OC)c1OC | 12.8 | 25.6 | 16.8 | 19.4 | 
CCc1nn2c(-c3ccccc3)c(-c3cc(OC)c(OC)c(OC)c3)nc2s1 | 14.6 | 11.5 | 10.8 | 13.4 | 
COc1cc(-c2nc3sc(C4CC4)nn3c2-c2ccc(N(C)C)cc2)cc(OC)c1OC | 3.45 | 3.4 | 2.9 | 2.5 | Activity [5]: Active; IC50 [6]: 3.8 µM; Activity [7]: Active; Activity [8]: 72.5%; Activity [9]: Active; fold change (FC) [11]: 2.5; fold change (FC) [12]: 2.5; inhibition [13]: 60.9%; Activity [14]: 57.66%
COc1cc(-c2nc3sc(C4CC4)nn3c2-c2ccc(C(F)(F)F)cc2)cc(OC)c1OC | 15.2 | 18.4 | 43.5 | 23.4 | 

Structure (SMILES) | IC50 [1] [µM] | IC50 [2] [µM] | IC50 [3] [µM] | IC50 [4] [µM] | further results
CCc1ccc(-c2c(-c3cc(OC)c(OC)c(OC)c3)nc3sc(C4CC4)nn23)cc1 | 13.5 | 29.3 | 36.2 | 39.8 | 
CCc1nn2c(-c3ccc(F)cc3OC)c(-c3cc(OC)c(OC)c(OC)c3)nc2s1 | 35.2 | 30.2 | 28.1 | 29.1 | 
CCc1ccc(-c2c(-c3cc(OC)c(OC)c(OC)c3)nc3sc(CC)nn23)cc1 | 24.4 | 12.5 | 12.4 | 14.6 | 
COc1cc(-c2nc3sc(C4CC4)nn3c2-c2cc(OC)c(OC)c(OC)c2)cc(OC)c1OC | 52.1 | 36.5 | 13.7 | 39.6 | 
CCc1nn2c(-c3ccc(C(F)(F)F)cc3)c(-c3cc(OC)c(OC)c(OC)c3)nc2s1 | 18.3 | 11.8 | 10.5 | 14.8 | 
COc1cc(-c2nc3sc(C4CC4)nn3c2-c2ccc(OC(F)(F)F)cc2)cc(OC)c1OC | 13 | 16.8 | 11.3 | 18.2 | 
COc1cc(-c2nc3sc(C4CC4)nn3c2-c2cc(F)cc(F)c2)cc(OC)c1OC | 16.9 | 23.4 | 17.3 | 29.6 | 
CCc1nn2c(-c3ccc(OC)c(OC)c3)c(-c3cc(OC)c(OC)c(OC)c3)nc2s1 | 13.3 | 11.4 | 14.6 | 14.6 | 
COC(=O)Nc1nc2cc(C(=O)c3cccs3)ccc2[nH]1 |  |  |  |  | inhibition [13]: 79.2%
CCc1nn2c(-c3ccc(Cl)cc3)c(-c3cc(OC)c(OC)c(OC)c3)nc2s1 | 19.1 | 12.2 | 13.7 | 15.4 | 
COc1cc(-c2nc3sc(C4CC4)nn3c2-c2ccc(F)cc2)cc(OC)c1OC | 15.1 | 19.6 | 15.6 | 27.6 | 
COc1ccc(-c2c(-c3cc(OC)c(OC)c(OC)c3)nc3sc(C4CC4)nn23)cc1OC | 16.6 | 12.9 | 15.6 | 19.6 | 
CC(=O)O[C@H]1C(=O)[C@@]2(C)[C@H]([C@H](OC(=O)c3ccccc3)[C@]3(O)C[C@H](OC(=O)[C@H](O)[C@@H](NC(=O)c4ccccc4)c4ccccc4)C(C)=C1C3(C)C)[C@]1(OC(C)=O)CO[C@@H]1C[C@@H]2O |  |  |  |  | Activity [7]: Active; Activity [9]: Active; inhibition [10]: inactive
CCc1nn2c(-c3ccc4c(c3)OCO4)c(-c3cc(OC)c(OC)c(OC)c3)nc2s1 | 18.8 | 11.5 | 8.7 | 13.1 | 
CCc1nn2c(-c3ccc(F)cc3)c(-c3cc(OC)c(OC)c(OC)c3)nc2s1 | 16.6 | 9.8 | 11.3 | 10.5 | 
COc1ccc(/C=C\c2cc(OC)c(OC)c(OC)c2)cc1O [COMBRETASTATIN A4] | 0.12 | 0.134 | 0.15 | 0.087 | Activity [5]: Active; Activity [7]: Active; Activity [8]: 83.95%; Activity [9]: Active; fold change (FC) [11]: 2.5; fold change (FC) [12]: 2.5
COc1ccc(-c2c(-c3cc(OC)c(OC)c(OC)c3)nc3sc(C4CC4)nn23)cc1 | 10.5 | 11.6 | 14.6 | 16.9 | 
